Test results from patent US9340528B2, “Substituted aminoquinoxalines as tyrosine threonine kinase inhibitors” (BAYER PHARMA AKTIENGESELLSCHAFT, priority 2009, dated 2016).
pIC50: −log10 of the molar value.

Test system: HeLa human cervical tumor cells (ATCC CCL-2)
Test: Proliferation Assay (crystal violet staining, 4 days)
Assay type: cell-based
Conditions: 96 h, 4 days incubation, read-out: EO-PROLIF-HELA
Method: Biological Assay: Proliferation Assay
Cultivated HeLa human cervical tumor cells (ATCC CCL-2) were plated at a density of 3000 cells/well in a 96-well multititer plate in 200 μl DMEM/HAMS F12 medium supplemented with 2 mM L-Glutamine and 10% fetal calf serum. After 24 hours, the cells of one plate (zero-point plate) were stained with crystal violet (see below), while the medium of the other plates was replaced by fresh culture medium (200 μl), to which the test substances were added in various concentrations (0 μM, as well as in the range of 0.01-30 μM; the final concentration of the solvent dimethyl sulfoxide was 0.5%). The cells were incubated for 4 days in the presence of test substances. Cell proliferation was determined by staining the cells with crystal violet: the cells were fixed by adding 20 μl/measuring point of an 11% glutaric aldehyde solution for 15 minutes at room temperature. After three washing cycles of the fixed cells with water, the plates were dried at room temperature. The cells were stained by adding 100 μl/measuring point of a 0.1% crystal violet solution (pH 3.0). After three washing cycles of the stained cells with water, the plates were dried at room temperature. The dye was dissolved by adding 100 μl/measuring point of a 10% acetic acid solution. The extinction was determined by photometry at a wavelength of 595 nm. The change of cell number, in percent, was calculated by normalization of the measured values to the extinction values of the zero-point plate (=0%) and the extinction of the untreated (0 μm) cells (=100%). The IC50 values were determined by means of a 4 parameter fit using the company's own software.

pIC50	SMILES
5.52	CNC(=O)c1ccc(-c2ccc3ncc(N4CCOCC4)nc3c2)cc1 [Example 1.47, N-methyl-4-[3-(morpholin-4-yl)quinoxalin-6-yl]benzamide]
6.05	CN1CCN(Cc2ccc(NC(=O)Nc3ccc(-c4ccc5ncc(N6CCOCC6)nc5c4)cc3)cc2C(F)(F)F)CC1 [Example 1.71, 1-{4-[(4-methylpiperazin-1-yl)methyl]-3-(trifluoromethyl)phenyl}-3-{4-[3-(morpholin-4-yl)quinoxalin-6-yl]phenyl}urea]
5.52	CC(=O)Nc1ccc(-c2ccc3ncc(N4CCOCC4)nc3c2)cc1 [Example 1.73, N-{4-[3-(morpholin-4-yl)quinoxalin-6-yl]phenyl}acetamide]
5.63	Cc1cc(-c2ccc3ncc(N4CCOCC4)nc3c2)cc(C)c1O [Example 1.108, 2,6-dimethyl-4-[3-(morpholin-4-yl)quinoxalin-6-yl]phenol]
5.95	CN1CCN(Cc2ccc(NC(=O)Nc3ccc(-c4ccc5ncc(N6CCCCC6)nc5c4)cc3)cc2C(F)(F)F)CC1 [Example 2.73, 1-{4-[(4-methylpiperazin-1-yl)methyl]-3-(trifluoromethyl)phenyl}-3-{4-[3-(piperidin-1-yl)quinoxalin-6-yl]phenyl}urea]
5.52	O=C(Nc1ccccc1)c1ccc(-c2ccc3ncc(N4CCCCC4)nc3c2)cc1 [Example 2.90, N-phenyl-4-[3-(piperidin-1-yl)quinoxalin-6-yl]benzamide]
5.60	Oc1ccc(-c2ccc3ncc(N4CCOCC4)nc3c2)cc1 [Example 3.5, 4-[3-(morpholin-4-yl)quinoxalin-6-yl]phenol]
5.53	Oc1ccc(-c2ccc3ncc(N4CCN(c5ccncc5)CC4)nc3c2)cc1 [Example 3.15, 4-{3-[4-(pyridin-4-yl)piperazin-1-yl]quinoxalin-6-yl}phenol]
5.41	Oc1ccc(-c2ccc3ncc(N4CCN(c5cnccn5)CC4)nc3c2)cc1 [Example 3.17, 4-{3-[4-(pyrazin-2-yl)piperazin-1-yl]quinoxalin-6-yl}phenol]
5.08	Oc1ccc(-c2ccc3ncc(N4CCN(Cc5cccnc5)CC4)nc3c2)cc1 [Example 3.35, 4-{3-[4-(pyridin-3-ylmethyl)piperazin-1-yl]quinoxalin-6-yl}phenol]
5.00	O=C(Cc1ccccc1)Nc1ccc(-c2ccc3ncc(N4CCOCC4)nc3c2)cc1 [Example 4.3, N-{4-[3-(morpholin-4-yl)quinoxalin-6-yl]phenyl}-2-phenylacetamide]
5.09	O=C(Cc1cccc(C(F)(F)F)c1)Nc1ccc(-c2ccc3ncc(N4CCOCC4)nc3c2)cc1 [Example 4.13, N-{4-[3-(morpholin-4-yl)quinoxalin-6-yl]phenyl}-2-[3-(trifluoromethyl)phenyl]acetamide]
5.00	O=C(NCc1ccccc1)Nc1ccc(-c2ccc3ncc(N4CCOCC4)nc3c2)cc1 [Example 6.6, 1-benzyl-3-{4-[3-(morpholin-4-yl)quinoxalin-6-yl]phenyl}urea]
5.41	O=C(Nc1ccc(-c2ccc3ncc(N4CCOCC4)nc3c2)cc1)Nc1cccnc1 [Example 6.8, 1-{4-[3-(morpholin-4-yl)quinoxalin-6-yl]phenyl}-3-pyridin-3-ylurea]
5.58	O=C(Cc1ccccc1)Nc1ccc(-c2ccc3ncc(N4CCN(c5ccncc5)CC4)nc3c2)cc1 [Example 7.1, 2-phenyl-N-{4-[3-(4-pyridin-4-yl-piperazin-1-yl)-quinoxalin-6-yl]-phenyl}-acetamide]
5.55	O=C(Cc1ccccc1F)Nc1ccc(-c2ccc3ncc(N4CCN(c5ccncc5)CC4)nc3c2)cc1 [Example 7.2, 2-(2-fluorophenyl)-N-(4-{3-[4-(pyridin-4-yl)piperazin-1-yl]quinoxalin-6-yl}phenyl)acetamide]
5.59	CC(C(=O)Nc1ccc(-c2ccc3ncc(N4CCN(c5ccncc5)CC4)nc3c2)cc1)c1ccccc1 (stereo not drawn) [Example 7.3, 2-phenyl-N-(4-{3-[4-(pyridin-4-yl)piperazin-1-yl]quinoxalin-6-yl}phenyl)propanamide]
5.84	O=C(CCc1ccccc1)Nc1ccc(-c2ccc3ncc(N4CCN(c5ccncc5)CC4)nc3c2)cc1 [Example 7.4, 3-phenyl-N-(4-{3-[4-(pyridin-4-yl)piperazin-1-yl]quinoxalin-6-yl}phenyl)propanamide]
5.55	O=C(Cc1ccccn1)Nc1ccc(-c2ccc3ncc(N4CCN(c5ccncc5)CC4)nc3c2)cc1 [Example 7.6, 2-(pyridin-2-yl)-N-(4-{3-[4-(pyridin-4-yl)piperazin-1-yl]quinoxalin-6-yl}phenyl)acetamide]
5.77	O=C(CC1CC1)Nc1ccc(-c2ccc3ncc(N4CCN(c5ccncc5)CC4)nc3c2)cc1 [Example 7.7, 2-cyclopropyl-N-(4-{3-[4-(pyridin-4-yl)piperazin-1-yl]quinoxalin-6-yl}phenyl)acetamide]
5.52	O=C(Nc1ccc(-c2ccc3ncc(N4CCN(c5ccncc5)CC4)nc3c2)cc1)NC1CC1 [Example 8.3, 1-cyclopropyl-3-(4-{3-[4-(pyridin-4-yl)piperazin-1-yl]quinoxalin-6-yl}phenyl)urea]
5.52	O=C(Cc1ccccc1)Nc1ccc(-c2ccc3ncc(N4CCN(Cc5cccnc5)CC4)nc3c2)cc1 [Example 9.1, 2-phenyl-N-{4-[3-(4-pyridin-3-ylmethyl-piperazin-1-yl)-quinoxalin-6-yl]-phenyl}-acetamide]
5.52	O=C(Cc1ccccc1F)Nc1ccc(-c2ccc3ncc(N4CCN(Cc5cccnc5)CC4)nc3c2)cc1 [Example 9.2, 2-(2-fluorophenyl)-N-(4-{3-[4-(pyridin-3-ylmethyl)piperazin-1-yl]quinoxalin-6-yl}phenyl)acetamide]
5.52	CC(C(=O)Nc1ccc(-c2ccc3ncc(N4CCN(Cc5cccnc5)CC4)nc3c2)cc1)c1ccccc1 (stereo not drawn) [Example 9.3, 2-phenyl-N-(4-{3-[4-(pyridin-3-ylmethyl)piperazin-1-yl]quinoxalin-6-yl}phenyl)propanamide]
